Measured values taken from the NIST ThermoML archive (doi:10.1016/j.jct.2009.07.005).

Legend:
[1] = molar heat capacity at constant pressure; settings: 101.33 kPa, Liquid, Small sample (50 mg) DSC
[2] = xn = mol fraction of the nth substance listed; settings: 101 kPa, Liquid, Small sample (50 mg) DSC
[3] = molar heat capacity at constant pressure; xn = mol fraction of the nth substance listed; settings: 101 kPa, Liquid, Small sample (50 mg) DSC

C1CNCCN1 [piperazine]
[1]
Settings	molar heat capacity at constant pressure [J/K/mol]
393.2 K	216.3
398.2 K	218.7
403.2 K	220.5
408.2 K	222.8
413.2 K	225

C1CNCCN1 [piperazine] + CN(CCO)CCO
Settings	excess molar heat capacity, x1 = 0.1 [J/K/mol]	excess molar heat capacity, x1 = 0.2 [J/K/mol]	excess molar heat capacity, x1 = 0.3 [J/K/mol]	excess molar heat capacity, x1 = 0.4 [J/K/mol]	molar heat capacity at constant pressure, x1 = 0.1 [J/K/mol]	molar heat capacity at constant pressure, x1 = 0.2 [J/K/mol]	molar heat capacity at constant pressure, x1 = 0.3 [J/K/mol]	molar heat capacity at constant pressure, x1 = 0.4 [J/K/mol]
[2], 303.2 K	2.3	3.92	5.4	6.21	–	–	–	–
[2], 308.2 K	2.46	4.22	5.73	6.61	–	–	–	–
[2], 313.2 K	2.63	4.52	6.06	7.01	–	–	–	–
[2], 318.2 K	2.79	4.82	6.4	7.41	–	–	–	–
[2], 323.2 K	2.97	5.11	6.74	7.82	–	–	–	–
[2], 328.2 K	3.12	5.51	7.06	8.22	–	–	–	–
[2], 333.2 K	3.29	5.82	7.41	8.62	–	–	–	–
[2], 338.2 K	3.46	6.1	7.73	9.02	–	–	–	–
[2], 343.2 K	3.63	6.4	8.06	9.42	–	–	–	–
[2], 348.2 K	3.79	6.7	8.39	9.83	–	–	–	–
[2], 353.2 K	3.95	6.99	8.72	10.23	–	–	–	–
[3], 303.2 K	–	–	–	–	264.4	256.6	248.7	240.1
[3], 308.2 K	–	–	–	–	267.7	260	252	243.3
[3], 313.2 K	–	–	–	–	271.1	263.3	255.2	246.6
[3], 318.2 K	–	–	–	–	274.4	266.7	258.5	249.8
[3], 323.2 K	–	–	–	–	277.7	270	261.8	253
[3], 328.2 K	–	–	–	–	281	273.5	265.1	256.3
[3], 333.2 K	–	–	–	–	284.4	276.8	268.4	259.5
[3], 338.2 K	–	–	–	–	287.7	280.2	271.6	262.7
[3], 343.2 K	–	–	–	–	291.1	283.5	274.9	266
[3], 348.2 K	–	–	–	–	294.4	286.9	278.2	269.2
[3], 353.2 K	–	–	–	–	297.7	290.2	281.4	272.4

C1CNCCN1 [piperazine] + O
Settings	excess molar heat capacity, x1 = 0.05 [J/K/mol]	excess molar heat capacity, x1 = 0.1 [J/K/mol]	excess molar heat capacity, x1 = 0.15 [J/K/mol]	excess molar heat capacity, x1 = 0.2 [J/K/mol]	molar heat capacity at constant pressure, x1 = 0.05 [J/K/mol]	molar heat capacity at constant pressure, x1 = 0.1 [J/K/mol]	molar heat capacity at constant pressure, x1 = 0.15 [J/K/mol]	molar heat capacity at constant pressure, x1 = 0.2 [J/K/mol]
[2], 303.2 K	2.16	3.88	5.53	7.95	–	–	–	–
[2], 308.2 K	2.37	4.28	6.13	8.65	–	–	–	–
[2], 313.2 K	2.58	4.68	6.73	9.35	–	–	–	–
[2], 318.2 K	2.78	5.08	7.33	10.05	–	–	–	–
[2], 323.2 K	2.99	5.58	7.93	10.75	–	–	–	–
[2], 328.2 K	3.2	5.98	8.53	11.45	–	–	–	–
[2], 333.2 K	3.41	6.38	9.03	12.25	–	–	–	–
[2], 338.2 K	3.62	6.78	9.53	12.95	–	–	–	–
[2], 343.2 K	3.83	7.18	10.13	13.65	–	–	–	–
[2], 348.2 K	4.04	7.58	10.63	14.35	–	–	–	–
[2], 353.2 K	4.25	7.98	11.23	15.05	–	–	–	–
[3], 303.2 K	–	–	–	–	82.5	89.4	96.1	103.7
[3], 308.2 K	–	–	–	–	82.8	90	97	104.8
[3], 313.2 K	–	–	–	–	83.2	90.6	98	105.9
[3], 318.2 K	–	–	–	–	83.5	91.2	98.9	107.1
[3], 323.2 K	–	–	–	–	83.8	92	99.9	108.2
[3], 328.2 K	–	–	–	–	84.2	92.6	100.8	109.4
[3], 333.2 K	–	–	–	–	84.5	93.3	101.7	110.6
[3], 338.2 K	–	–	–	–	84.9	93.9	102.5	111.8
[3], 343.2 K	–	–	–	–	85.3	94.6	103.5	113
[3], 348.2 K	–	–	–	–	85.6	95.2	104.4	114.1
[3], 353.2 K	–	–	–	–	86	95.9	105.3	115.3
